Results on four compounds are retold here after patent US20240239823A1, “PHOSPHINATE ESTER-CONTAINING DYES HAVING TUNABLE PROPERTIES AND METHODS OF MAKING THE SAME” (University of Virginia Patent Foundation, priority 2021, published 2024).

A short description of data set [1]: Aggregation in aqueous solution (absorbance versus concentration, SDS addition). The settings on record: for effect of surfactant on absorbance: addition of 0.1% SDS, water; for aggregation / H-aggregate formation (blue-shifted absorbance band): aqueous solutions; for aggregation / H-aggregate formation (blue-shifted absorbance band) / linearity of absorbance versus concentration: increasing concentrations; for linearity of absorbance versus concentration: in water. It is filed as physicochemical. From the text: FIG. 2.2A: The structure of methylene blue (MB) and NR751.

The nature of data set [2]: Quenching of dye absorbance by glutathione (GSH). The format is physicochemical. As to conditions: absence versus presence of GSH. The text has this: The absorbance of NR708 in the absence or presence of GSH is shown.
In order to improve the chemical stability of NR dyes to nucleophiles found in biological systems, such as glutathione (GSH), bulky substituents were introduced to protect the C9 position of the dyes from nucleophilic attack. Accordingly, derivatives of NR700 and NR666, termed NR708 and NR675, respectively, were synthesized that bear bulky substituents on the pendant phenyl ring proximal to the C9 position of the dye (FIG. 3.1). […] The improved chemical stability of these dyes will provide brighter probes for imaging applications.

The subject of the next data set is RAW 264.7 cells. The data set is described as follows: Confocal imaging of RAW 264.7 cells with or without stimulation to produce endogenous HOCl. The format is cell-based. The settings on record: 50 μM; cells producing HOCl. On the procedure:
FIGS. 5.2A-5.2C show phosphinate-containing dyes as gated small molecule delivery vehicles for cytotoxic compounds in cells. FIG. 5.2A: The structure of NR—HOCl-1541B (left). Selective reaction with HOCl results in the gated release of 1541B, a cytotoxic compound, and a fluorescent NR dye (right) FIG. 5.2B: Viability of RAW 264.7 macrophages in the presence or absence of stimulation to produce endogenous HOCl (LPS and PMA), cells were incubated with 50 μM 1541B or NR—HOCl-1541B where indicated. FIG. 5.2C: Confocal imaging of RAW 264.7 cells incubated with 50 μM NR—HOCl-1541B in the presence or absence of stimulation to produce endogenous HOCl.

The structures appear in SMILES notation.

For `CN(C)c1ccc2nc3ccc(=[N+](C)C)cc-3sc2c1` [MB, methylene blue, reference compound], in data set [1], the “effect of surfactant on absorbance” value was “reduces the intensity of the blue-shifted H-Aggregate absorption band”, the “aggregation / H-aggregate formation (blue-shifted absorbance band)” value is recorded as “increase in H-aggregate formation” and the “linearity of absorbance versus concentration” value was “clear deviation from linearity”.
Consider `COc1cccc(OC)c1C1=C2C=CC(=[N+](C)C)C=C2P(=O)(O)c2cc(N(C)C)ccc21` [NR675], for which the “quenching / change of absorbance in the presence of glutathione (GSH)” value in data set [2] is on record as “virtually no quenching”.
Take `CC1=CC(=[N+](C)C)C=C2C1=Nc1c(C)cc(N(C)C)cc1P2(=O)O` [NR751]: in data set [1], the “effect of surfactant on absorbance” value is “No change is observed in the absorbance”, the “aggregation / H-aggregate formation (blue-shifted absorbance band)” value was “significantly reduced aggregation” and the “linearity of absorbance versus concentration” value is listed as “clear linear increase in absorbance versus concentration”.
Turning to `CN(C)c1ccc2c(c1)P(=O)(Oc1cccc3cc(C(=O)Nc4cccc(-c5cn6ccccc6n5)c4)c(=O)oc13)c1cc(N(C)C)ccc1C21SCc2ccccc21` (centres unmarked) [NR—HOCl-1541B], the “fluorescence and payload delivery in cells” value in the data set with RAW 264.7 cells was “Clear evidence of fluorescence, and payload delivery”.
